Experimental findings from patent US5332734A, “Oxazinone derivative” (Japan Tobacco, Incorporated, priority 1991, dated 1994) are described below.

The structures appear in SMILES notation.

This experiment deals with human neutrophils. As to the kind of experiment: Activity for suppressing chemotaxis of human neutrophils (fMLP). It is filed as cell-based. The conditions noted are these: Neutrophil, 1 h, one hour. The method, then: Test 2: Activity of the Invented Compound for Suppressing Chemotaxis of Human Neutrophils
A neutrophil fraction (60% percoal fraction having neutrophil purity of at least 90%) was obtained from a human peripheral blood by a percoal density gradient centrifugal separation (2300 rpm, 20 minutes).
1300 μl of a culture medium containing 10^-7 M of fMLP (formylmethionyloycyl-phenylalanine), which is a neutrophil chemotaxis factor, was added in advance to each well of a chemotaxis chamber (KURABO). An inter cell having pores 5 μm in diameter and containing 8×10^5 neutrophils and the compound of the present invention adjusted at a desired concentration was disposed in the chemotaxis chamber. After culturing for one hour at 37° C. within a culturing device containing 5% of carbon dioxide gas, the number of cells migrated from the upper side of inter cell membrane into the lower side of the membrane in the chamber was counted by the method described in the following. Specifically, the lower side surface of the inter cell membrane was washed 4 times with PBS. After fixing the washed surface with methanol, the cells were dyed with hematoxylin-eosine solution. Then, the membrane was removed from the inter cell and put on a sliding glass for air-drying, followed by sealing with Canada balsam. Under this condition, five areas selected at random of the membrane were microscopically observed so as to count the number of cells. An average of the number of cells within the five areas was calculated so as to determine the number of migrated cells.
The function of the invented compound for suppressing chemotaxis was determined by the formula given below, in which the value obtained by subtracting the number of migrating cells in the reference experiment in which fMLP was not added from the number of migrating cells in the experiment in which the compound of the present invention was not added was set at 100:
= 100 - (C - D)/(E - D) × 100
A: Chemotaxis in the case of containing the compound of the present invention;
B: Chemotaxis in the case of not containing the compound of the present invention;
C: The number of migrating cells in the case of adding the compound of the present invention, fMLP;
D: The number of migrating cells in the case of not adding fMLP; and
E: The number of migrating cells in the case of adding only fMLP.

Consider `Cc1cccc2nc([C@@H](NC(=O)OCC3c4ccccc4-c4ccccc43)C(C)C)oc(=O)c12` [Compound 1, 2-{1(S)-[(9-fluorenylmethoxycarbonyl)amino]-2-methylpropyl}-5-methyl-4H-3,1-benzoxazin-4-one], for which the inhibition at 50 µM (concentration 50 (μm), fMLP 10^-7 M) was determined as 89%. The activity at 50 µM (concentration 50 (μm), without compound = 100, fMLP 10^-7 M) was found to be 11%. Further, under “concentration 100 (μm), fMLP 10^-7 M”, the inhibition at 100 µM was 99%. Moreover, the activity at 100 µM (concentration 100 (μm), without compound = 100, fMLP 10^-7 M) was found to be 1%.
